Experimental findings from US20260176320A1, “MODULATORS OF G-PROTEIN COUPLED RECEPTORS” (priority 2018, published 2026) are described below.

In one series the target is T1, GIP-R (Homo sapiens, UniProt P48546).
T1 sequence (P48546 22-466): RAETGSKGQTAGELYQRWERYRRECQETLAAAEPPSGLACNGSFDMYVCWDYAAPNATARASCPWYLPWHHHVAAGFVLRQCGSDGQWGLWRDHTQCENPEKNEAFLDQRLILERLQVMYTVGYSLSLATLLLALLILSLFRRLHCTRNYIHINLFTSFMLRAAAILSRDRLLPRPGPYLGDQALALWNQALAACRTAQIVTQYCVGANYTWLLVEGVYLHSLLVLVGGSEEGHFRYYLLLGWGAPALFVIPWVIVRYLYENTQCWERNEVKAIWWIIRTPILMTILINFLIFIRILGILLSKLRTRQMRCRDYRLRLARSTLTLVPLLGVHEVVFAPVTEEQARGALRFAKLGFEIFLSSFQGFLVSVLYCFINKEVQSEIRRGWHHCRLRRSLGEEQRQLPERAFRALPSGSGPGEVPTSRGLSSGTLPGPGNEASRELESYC
The series can be described thus: HitHunter cAMP assay (GIP-R). The following applies: cAMP; for Emax: read-out: (Emax) GIP-R. The series is classed as cell-based. The essentials:
(§1)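 Cells were resuspended in HBSS plus HEPES, IBMX (625 μM) and BSA, then dispensed with antibody at 10,000 per well. Agonists followed as 22-point twofold series, 30 min at room temperature. Antibody reagent and detection steps ran 1 h and overnight in the dark before luminescence.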

The subject of series [1] is mice. Kind of series: Conditioned taste aversion (CTA) in mice. The series is classed as in vivo, mouse. The following applies: s.c., 30 nmol/kg, saccharine preference vs vehicle. On the procedure: A value of CTA=0.0-0.6 indicates significant aversion to a compound. The conditioned taste aversion assay measures the preference for a dilute saccharin solution that is associated with compound administration.
One week before start of experiment (Day-7), animals were transferred to single house double grommet cages. A 50 ml water bottle was placed, and consistently replaced when refilled in the same grommet to habituate the animal to a “water” side. After 7 days of baseline water consumption, animals began the taste preference procedure. On Day 1, the animals were weighed and deprived of water at […]. On acquisition day (Day 2), mice had access to a single bottle containing 0.15% saccharin solution, on the opposite side to the “water” habituated side and allowed to consume for 3 h, from 6 pm until 9 pm. The saccharine bottles were then removed and weighed to record the 3 h consumption. […] On Day 3, the water was removed and weighed at 6 pm. On Day 4, both saccharine and water bottles were weighed and returned simultaneously to respective grommet at 6 pm. On Day 5, the bottles were removed at 6 pm and weighed. Saccharine consumption was measured as a percent of the total amount of fluid consumed. The reduction of saccharin consumption during the retrieval was used as a measure of CTA strength. Liraglutide and semaglutide were used as positive controls.

The target in series [2] is T2, GLP-1R (Homo sapiens, UniProt P43220). The series can be described thus: PathHunter β-arrestin assay. In kind it is cell-based. A digest of the protocol: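 Agonist concentration–response (22 points, 2-fold steps, duplicates) was run on cells plated the previous day in BSA-supplemented (0.2%) medium. Stimulation lasted 90 min at 37 °C, followed by a 3 h dark incubation with detection reagent at room temperature and a luminescence read.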
T2 sequence (P43220 24-463): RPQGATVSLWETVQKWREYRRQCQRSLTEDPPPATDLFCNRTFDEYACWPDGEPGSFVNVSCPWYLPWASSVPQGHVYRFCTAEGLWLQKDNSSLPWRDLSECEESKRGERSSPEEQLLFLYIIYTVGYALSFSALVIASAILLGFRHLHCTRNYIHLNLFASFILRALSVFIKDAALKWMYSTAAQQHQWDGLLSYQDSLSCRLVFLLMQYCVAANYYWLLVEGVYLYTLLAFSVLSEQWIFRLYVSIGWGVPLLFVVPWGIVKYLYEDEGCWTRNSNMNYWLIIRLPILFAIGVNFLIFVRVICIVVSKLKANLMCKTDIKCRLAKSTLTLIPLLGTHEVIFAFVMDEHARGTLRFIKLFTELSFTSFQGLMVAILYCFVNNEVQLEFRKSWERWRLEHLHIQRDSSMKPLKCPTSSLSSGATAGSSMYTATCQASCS

Series [3] addresses T2, GLP-1R. The series can be described thus: HitHunter cAMP assay (GLP-1R). In kind it is cell-based. The following applies: cAMP; for Emax: read-out: (Emax) GLP-1R. The essentials: as §1
(Changes in cAMP serve as a functional read-out for many G protein-coupled receptors.)

The test system of series [4] is mice. Kind of series: Glucose tolerance test (GTT). In kind it is in vivo, mouse. The following applies: 24 h GTT, s.c., percent of vehicle. A digest of the protocol:
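Compounds diluted in PBS from 1 mM DMSO stocks and given subcutaneously 15 min (5-6 h fast), 4 h (16 h overnight fast), 16 h or 24 h before intraperitoneal glucose (2 g/kg). Tail blood glucose read at 10–120 min post-glucose, at least 6 mice per time-point. Glucose AUC over time determined.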

Where two headings read alike, the source gives them in different places. Bounds are passed on as bounds.

The term Emax denotes the greatest response seen or fitted, relative to the assay's reference. Turning to `CCCCCCCCCCCCCCCC(=O)N[C@@H](CCC(=O)NCCCC[C@H](NC(=O)[C@H](CO)NC(=O)[C@@H]1CCCN1C(=O)[C@@H]1CCCN1C(=O)[C@@H]1CCCN1C(=O)[C@H](C)NC(=O)CNC(=O)[C@H](CO)NC(=O)[C@H](CO)NC(=O)[C@@H]1CCCN1C(=O)CNC(=O)CNC(=O)[C@H](C)NC(=O)[C@H](CC(C)C)NC(=O)[C@H](CC(C)C)NC(=O)[C@H](Cc1c[nH]c2ccccc12)NC(=O)[C@H](CC(N)=O)NC(=O)[C@@H](NC(=O)[C@H](Cc1ccccc1)NC(=O)[C@H](CCC(=O)O)NC(=O)C(C)(C)NC(=O)[C@H](C)NC(=O)[C@H](C)NC(=O)[C@H](CCC(N)=O)NC(=O)[C@H](CCCCN)NC(=O)[C@H](CC(=O)O)NC(=O)[C@H](CC(C)C)NC(=O)[C@H](Cc1ccc(O)cc1)NC(=O)[C@@H](NC(=O)[C@H](CO)NC(=O)[C@H](Cc1ccc(O)cc1)NC(=O)[C@H](CC(=O)O)NC(=O)[C@H](CO)NC(=O)[C@@H](NC(=O)[C@H](Cc1ccccc1)NC(=O)[C@@H](NC(=O)CNC(=O)[C@H](CCC(=O)O)NC(=O)CSCC(=O)NCCN1CCC(O)CC1=O)[C@@H](C)O)[C@@H](C)O)[C@@H](C)CC)C(C)C)C(N)=O)C(=O)O` (single isomer, unassigned) [Compound 202], the EC50 at GIP-R (EC50 GIP-R/nM, Table 3A) is 0.1 to 1 nM; on GLP-1R [2] it was over 1000 nM; on GLP-1R [3] (EC50 GLP-1R/nM, Table 3A), under 0.1 nM. At GIP-R (Table 3A), the Emax was 67%. Besides, the CTA score with mice [1] is listed as 4 (Score 4 = 76-100%).

As to `CCCCCCCCCCCCCCCC(=O)N[C@@H](CCC(=O)NCCCC[C@H](NC(=O)[C@H](CO)NC(=O)[C@@H]1CCCN1C(=O)[C@@H]1CCCN1C(=O)[C@@H]1CCCN1C(=O)[C@H](C)NC(=O)CNC(=O)[C@H](CO)NC(=O)[C@H](CO)NC(=O)[C@@H]1CCCN1C(=O)CNC(=O)CNC(=O)[C@H](C)NC(=O)[C@H](CC(C)C)NC(=O)[C@H](CC(C)C)NC(=O)[C@H](Cc1c[nH]c2ccccc12)NC(=O)[C@H](CC(N)=O)NC(=O)[C@@H](NC(=O)[C@H](Cc1ccccc1)NC(=O)[C@H](CCC(=O)O)NC(=O)C(C)(C)NC(=O)[C@H](C)NC(=O)[C@H](C)NC(=O)[C@H](CCC(N)=O)NC(=O)[C@H](CCCCN)NC(=O)[C@H](CC(=O)O)NC(=O)[C@H](CC(C)C)NC(=O)[C@H](Cc1ccc(O)cc1)NC(=O)[C@@H](NC(=O)[C@H](CO)NC(=O)[C@H](Cc1ccc(O)cc1)NC(=O)[C@H](CC(=O)O)NC(=O)[C@H](CO)NC(=O)[C@@H](NC(=O)[C@H](Cc1ccccc1)NC(=O)[C@@H](NC(=O)CNC(=O)[C@H](CCC(=O)O)NC(=O)CSCC(=O)NCCN1CCCCC1=O)[C@@H](C)O)[C@@H](C)O)[C@@H](C)CC)C(C)C)C(N)=O)C(=O)O` [Compound 65], in the series with mice [4] (dose range 2-5 nmol/kg), the AUC score is on record as 2 (AUC score 2 = 26-50%). Also, the Emax on GIP-R (Table 3) was 42%; at GIP-R (Table 3A) it was 42%; at GLP-1R [3] (Table 3) it was 96%; at GLP-1R [3] (Table 3A) it was 96%. Besides, the EC50 at GIP-R (Table 3, read-out: EC50 GIP-R/nM) is 1 to 10 nM; on GIP-R (Table 3A, read-out: EC50 GIP-R/nM), 1 to 10 nM; on GLP-1R [2] (PathHunter β-arrestin assay, read-out: β-arrestin activity EC50), over 1000 nM; at GLP-1R [3] (Table 3, read-out: EC50 GLP-1R/nM), 0.1 to 1 nM; at GLP-1R [3] (Table 3A, read-out: EC50 GLP-1R/nM), 0.1 to 1 nM.

In the case of `CCCCCCCCCCCCCCCC(=O)N[C@@H](CCC(=O)NCCCC[C@H](NC(=O)[C@H](CO)NC(=O)[C@@H]1CCCN1C(=O)[C@@H]1CCCN1C(=O)[C@@H]1CCCN1C(=O)[C@H](C)NC(=O)CNC(=O)[C@H](CO)NC(=O)[C@H](CO)NC(=O)[C@@H]1CCCN1C(=O)CNC(=O)CNC(=O)[C@H](C)NC(=O)[C@H](CC(C)C)NC(=O)[C@H](CC(C)C)NC(=O)[C@H](Cc1c[nH]c2ccccc12)NC(=O)[C@H](CC(N)=O)NC(=O)[C@@H](NC(=O)[C@H](Cc1ccccc1)NC(=O)[C@H](CCC(=O)O)NC(=O)C(C)(C)NC(=O)[C@H](C)NC(=O)[C@H](C)NC(=O)[C@H](CCC(N)=O)NC(=O)[C@H](CCCCN)NC(=O)[C@H](CC(=O)O)NC(=O)[C@H](CC(C)C)NC(=O)[C@H](Cc1ccc(O)cc1)NC(=O)[C@@H](NC(=O)[C@H](CO)NC(=O)[C@H](Cc1ccc(O)cc1)NC(=O)[C@H](CC(=O)O)NC(=O)[C@H](CO)NC(=O)[C@@H](NC(=O)[C@H](Cc1ccccc1)NC(=O)[C@@H](NC(=O)CNC(=O)[C@H](CCC(=O)O)NC(=O)CSCC(=O)NCCN1C(=O)C(C)=C(C)C1=O)[C@@H](C)O)[C@@H](C)O)[C@@H](C)CC)C(C)C)C(N)=O)C(=O)O` [Compound 77], in the series on mice [4] (dose range 5.1-15 nmol/kg), the AUC score is given as 2 (AUC score 2 = 26-50%). In addition, the EC50 at GIP-R (EC50 GIP-R/nM, Table 3) is 0.1 to 1 nM; on GIP-R (EC50 GIP-R/nM, Table 3A) it was 0.1 to 1 nM; at GLP-1R [2], over 1000 nM; on GLP-1R [3] (EC50 GLP-1R/nM, Table 3) it was 0.1 to 1 nM; at GLP-1R [3] (EC50 GLP-1R/nM, Table 3A), 0.1 to 1 nM. Further, the Emax was 82% at GIP-R (Table 3), 82% on GIP-R (Table 3A), 90% on GLP-1R [3] (Table 3) and 90% at GLP-1R [3] (Table 3A).

Consider `CCCCCCCCCCCCCCCC(=O)N[C@@H](CCC(=O)NCCCC[C@H](NC(=O)[C@H](CO)NC(=O)[C@@H]1CCCN1C(=O)[C@@H]1CCCN1C(=O)[C@@H]1CCCN1C(=O)[C@H](C)NC(=O)CNC(=O)[C@H](CO)NC(=O)[C@H](CO)NC(=O)[C@@H]1CCCN1C(=O)CNC(=O)CNC(=O)[C@H](C)NC(=O)[C@H](CC(C)C)NC(=O)[C@H](CC(C)C)NC(=O)[C@H](Cc1c[nH]c2ccccc12)NC(=O)[C@H](CC(N)=O)NC(=O)[C@@H](NC(=O)[C@H](Cc1ccccc1)NC(=O)[C@H](CCC(=O)O)NC(=O)C(C)(C)NC(=O)[C@H](C)NC(=O)[C@H](C)NC(=O)[C@H](CCC(N)=O)NC(=O)[C@H](CCCCN)NC(=O)[C@H](CC(=O)O)NC(=O)[C@H](CC(C)C)NC(=O)[C@H](Cc1ccc(O)cc1)NC(=O)[C@@H](NC(=O)[C@H](CO)NC(=O)[C@H](Cc1ccc(O)cc1)NC(=O)[C@H](CC(=O)O)NC(=O)[C@H](CO)NC(=O)[C@@H](NC(=O)[C@H](Cc1ccccc1)NC(=O)[C@@H](NC(=O)CNC(=O)[C@H](CCC(=O)O)NC(=O)CSCC(=O)NCCN1CCCCCC1=O)[C@@H](C)O)[C@@H](C)O)[C@@H](C)CC)C(C)C)C(N)=O)C(=O)O` [Compound 41], for which the AUC score with mice [4] (dose range 2-5 nmol/kg) was 4 (AUC score 4 = 76-100%). The EC50 at GIP-R (EC50 GIP-R/nM, Table 3) is 1 to 10 nM; on GIP-R (EC50 GIP-R/nM, Table 3A), 1 to 10 nM; at GLP-1R [2], over 1000 nM; on GLP-1R [3] (EC50 GLP-1R/nM, Table 3) it was 0.1 to 1 nM; on GLP-1R [3] (EC50 GLP-1R/nM, Table 3A), 0.1 to 1 nM. Further, the Emax on GIP-R (Table 3) is 75%; at GIP-R (Table 3A) it was 75%; at GLP-1R [3] (Table 3), 100 to 104%; on GLP-1R [3] (Table 3A) it was 100 to 104%.
